From PMC9571290, “Preliminary Structure–Activity Relationship Study of the MMV Pathogen Box Compound MMV675968 (2,4-Diaminoquinazoline) Unveils Novel Inhibitors of Trypanosoma brucei brucei” (Molecules, 2022)
Like-named read-outs stand apart in the source and are kept apart here.

Columns and labels:
[1] = system: bloodstream forms of Trypanosoma brucei brucei; test: cellular DNA fragmentation ELISA (apoptosis or cytolysis); format: cell-based; conditions: 4 h; for apoptotic DNA fragmentation: lysate, at IC50
Experimental: Basically, this assay tends to quantify apoptotic cell death by detection of […] dye-labeled DNA fragments in the cytoplasm of affected cells or to measure cell-mediated cytotoxicity by detection of dye-labeled DNA fragments released from damaged cells into the culture supernatant. […] BrdU-labeled parasites were harvested (by spinning at 2500 rpm for 7 min) followed by centrifugal washing using BrdU-free HMI-9 medium. […] The plate was then centrifuged at […] for 7 min, and the pellets were collected and kept at 4 °C until further use. For cytolysis measurement, the supernatants were added to a microplate coated with anti-DNA antibody to allow DNA capture from the test samples. The captured DNA fragments were subsequently denatured using microwave irradiation (LG NeoChef Charcoal Healthy Ovens) at 500 W for 5 min to separate DNA strands in view of displaying the BrdU. Thereafter, an anti-BrdU-antibody-POD (peroxidase) conjugate was added to detect the BrdU contained in the captured DNA fragments.
For apoptosis measurement, the cell pellets from each well were resuspended in 200 µL of the kit’s incubation buffer and incubated for 30 min. The lysed cells were centrifuged at […] for 10 min, and the supernatants were used as described above. Triton X-100 (Sigma Aldrich) was used as a positive control for both apoptosis and cell-mediated cytotoxicity. The absorbance values were proportionally correlated to the amount of DNA fragments in the treated cultures. Data are expressed as the mean ± SD of two independent experiments performed in duplicate and compared to the negative control (untreated parasites) at a significance level of p < 0.05.

[2] = system: bloodstream form of Trypanosoma brucei brucei; test: parasite-killing kinetics and cidal or static effect; format: cell-based; conditions: for cidal or static effect after inhibitor removal: IC90 and IC99, removal at 4 h (10) or 24 h (7), subculture in inhibitor-free medium; for time to total inhibition of trypanosome growth: at IC99
Experimental: Thus, they were selected, and their effect at various concentrations was assessed on the proliferation rate of the bloodstream form of Trypanosoma brucei brucei using microscopic cell count. […] After specified exposure time intervals (0, 4, 8, 12, 24, 30, 36, 48, 60, 72 h), the content of each well was harvested and counted on a Neubauer hemacytometer to determine the number of mobile parasites. The obtained values were used to plot the growth curves as parasite density (cells/mL) versus incubation time using GraphPad Prism 8.0 software.
Therefore, the ability of parasites to recover post exposure to inhibitors 10 and 7 was further evaluated. […] After that, the cells were washed three times with fresh complete medium by centrifugation at 2500 rpm for 7 min. Cell pellets were thereafter resuspended in fresh complete culture medium in a 24-well plate and subcultured under the same conditions for 68 h for compound 10 and 48 h for compound 7 to achieve the complete parasite growth pattern. Thereafter, cells were enumerated using the Neubauer cell counter at each time point. The assay was performed in duplicate, and the mean cell counts were plotted […] against time using GraphPad Prism 8.0 to assess the cidal or static effect of inhibitors.

[3] = system: trypanosome plasma membrane; test: plasma membrane integrity (SYBR Green); format: cell-based, Trypanosoma brucei brucei; conditions: IC99, IC90, IC50, IC10; up to 120 min
Experimental: The plasma membrane is the first barrier protecting the cell from the external environment and therefore might represent an important challenge for compounds to exert their inhibitory action. Thus, compounds 7 and 10 were assessed for their ability to induce alterations in cell integrity as previously described with a modification consisting of using an SYBR green assay. The principle of this assay is based on the fact that upon treatment with membrane disruptors, trypanosomes with compromised plasma become fluorescent as a result of SYBR green entry and fixation to the exposed DNA. Practically, in a 96-well microtiter plate, 90 µL of trypanosome suspension (2 × 10^6 cells/mL/well) was preincubated with SYBR Green (2X) (Sigma Aldrich) for 15 min at 37 °C and 5% CO2 in darkness. […] The plate was then incubated at 37 °C on a Magelan Infinite M200 multiwell plate reader (Tecan), and fluorescence was further recorded every 5 min for up to 120 min at λex = 485 and λem = 538 nm. […] The results are expressed as the mean ± SD of two experiments carried out in duplicate after deducting the background signal (wells containing HMI-9 medium) and then used to plot the fluorescence counts versus time (min) graph.

[4] = system: bloodstream forms of Trypanosoma brucei brucei; test: resazurin-based antitrypanosomal inhibition assay; format: cell-based; conditions: Trypanosoma brucei
[5] = ferric ion reducing antioxidant power (FRAP); conditions: Fe^3+-reducing activity
Experimental: Iron is one of the vital elements for all parasites, including trypanosomes, as it plays a key role in pathogenesis and the host immune response. Therefore, iron bioavailability reducing agents to the parasite could be potential candidates for drug development against trypanosomiasis. To this end, we determined the capacity of the test compounds to reduce iron from ferric to ferrous status using the method described by Benzie et al.. Briefly, 25 µL of each compound (7 and 10) was added to 25 µL of a solution of Fe^3+ prepared at 1.2 mg/mL in distilled water in a 96-well microplate. The plate was incubated for 15 min at room temperature in darkness, after which 50 µL of ortho-phenanthroline (0.2% in methanol) was added to achieve final compound concentrations ranging from 400 µM to 0.19 µM. Plates were reincubated for 15 min, and the absorbance was measured at 510 nm. Ascorbic acid was used as a positive control and tested at concentrations ranging from 100 to 0.048 μg/mL. The median reducing concentration (RC50) values of compounds were determined through sigmoidal concentration–response curves using GraphPad Prism version 8.0 software.

[6] = Table 4, analogs of MMV675968, solid material, read-out: IC50 ± SD T. b. b.
[7] = Table 4, negative log of IC50 in molar, read-out: pIC50 T. b. b. (converted)

Row | SMILES | induction of cell lysis (cytolysis) ([1]; culture supernatant) | apoptotic DNA fragmentation [1] | cidal or static effect after inhibitor removal [2] | time to total inhibition of trypanosome growth [2] [h] | effect on plasma membrane permeability [3] | IC50 [4, 6] [nM] | IC50 [4, 7] [nM] | median reducing concentration (RC50) [5] [µM]
1 | COc1ccccc1NCc1ccc2nc(N)nc(N)c2c1 [Analog 7, 6-(((2-methoxyphenyl)amino)methyl)quinazoline-2,4-diamine] | did not exert any effect | did not exert any effect | static effect | ≤ 24 | no impairment or a rather mild effect | 60 ± 8 | 60.3 | 96.37
2 | Nc1nc(N)c2cc(CNc3cc(Cl)ccc3Cl)ccc2n1 [Analog 10, 6-(((2,5-dichlorophenyl)amino)methyl)quinazoline-2,4-diamine] | – | significant inducing effect | cidal effect | ≤ 4 | no impairment or a rather mild effect | 45 ± 5 | 45.7 | > 400
